Results: patent publication US20130165368A1, “ANTIMICROBIAL COMPOUNDS” (priority 2010, published 2013)
In brackets after ≈: the same amount, converted by molar mass. Where two headings read alike, the source gives them in different places.

Columns and labels:
Format in all cases: cell-based
MRSA EMRSA 16 00998/95 = experiment: MIC agar dilution, MRSA strain 47; conditions: Staphylococcus aureus
Description: (§1) Molar equivalent concentrations were used to allow comparison between compounds of differing molecular mass. Due to weighing difficulties, any compound in solid form was melted in a water bath prior to dilution. To make ten-times strength concentrations, which takes into account agar dilution, 0.0352 mmol of each compound was weighed into plastic universal bottles and 4 mL of sterile distilled water (SDW) was added. To produce a homogenous emulsion the universals were vortexed; once achieved the emulsions were serial diluted by adding 2 mL to 2 mL of SDW.
(§2) For every 100 mL of Isosensitest agar (IST) (CM0471; Oxoid, Basingstoke, England), 3.1 g of the IST powder was added to 100 mL SDW (as per manufacturer's instructions) and sterilised for 15 minutes at 121° C. Once sterilised, the molten agar was cooled to 50° C. in a water-bath. Subsequently 4.8 g of CCEY powder (BC2160; Bioconnections, Wetherby, England), also known as Brazier's medium, was added to 100 mL SDW for every 100 mL of agar needed. This was then sterilised for 15 minutes at 121° C. Once sterilised the molten agar was cooled to 50° C. in a water-bath and 4 mL of egg-yolk emulsion (S2073; TCS Biosciences Ltd, Buckingham, United Kingdom) and 1 mL of lysed defibrinated horse blood (HB035; TCS Biosciences Ltd, Buckingham, United Kingdom) were also added for every 100 mL needed. Horse blood lysis is achieved by dilution to half concentration with SDW; when fully lysed the mixture will turn dark red in colour.
(§3) 18 mL agar was added to each universal and then poured into sterile Petri dishes. This step creates a 1/10 dilution resulting in agar plates of the required strength. Control plates for each set of strains were created by adding 18 mL of agar to 2 mL of SDW.
(§4) Suspensions of each bacterial species were prepared with a density equal to that of a 0.5 McFarland standard using a densitometer. All suspensions were made using sterile distilled water and fresh 18-20 hour cultures. As a 0.5 McFarland standard contains 1.5×10^8 CFU/mL and the multipoint inoculators applies 1 μL spots of liquid, each bacterial suspension was diluted 1/15 (20 μL suspension to 280 μL sterile distilled water).
(§5) Bacterial suspensions were prepared from fresh 18-24 hour cultures as previously described. 1 μL of each strain was inoculated onto all 100 agar plates containing a different chemical concentration and the 2 control plates. This was done using a multipoint inoculator which inoculates 20 strains per plate. All plates were incubated for 22 hours at 37° C. in aerobic conditions.
(§6) Each plate was examined for bacterial growth after 22 and 48 hours, with each being incubated in between examinations. A positive result was recorded as growth of ≧10 colonies. A negative result was recorded as growth of <10 colonies as this is equivalent to 99.9% inhibition. The lowest concentration of chemical that inhibited growth was recorded as the MIC. The results are recorded in Table IV below, where the numbers are quoted in mmol/L.
(§7) Given the positive performance of the ethoxylates of lauryl alcohol in reducing the MIC for a number of the micro-organisms tested, further MIC testing of Laureth-1 [C12E1] through to Laureth-8 [C12E8] was conducted on each of the following: • 10 strains of vancomycin-resistant enterococci (VRE)—listed in Table V below; and • 20 strains of methicillin-resistant Staphylococcus aureus (MRSA)—listed in Table VI.
(§8) The alkanol, alkanol derivatives, agar plates, and inocula were all prepared in the same way as described above.
(§9) The plates were examined in the same manner as described above and the results are recorded in Table VII below, where the numbers are quoted in mmol/L.

[1] = system: Enterococcus faecium (VRE) MB 305; experiment: MIC agar dilution, VRE strain 25
Description: as §1, §2, §3, §4, §5, §6, §7, §8, §9

MRSA EMRSA 15 21268/98 = experiment: MIC agar dilution, MRSA strain 40; conditions: Staphylococcus aureus
Description: as §1, §2, §3, §4, §5, §6, §7, §8, §9

MRSA EMRSA 16 00036/95 = experiment: MIC agar dilution, MRSA strain 46; conditions: Staphylococcus aureus
Description: as §1, §2, §3, §4, §5, §6, §7, §8, §9

Candida glabrata = experiment: MIC agar dilution, micro-organism 20 (3943); conditions: Nakaseomyces glabratus, Candida glabrata 3943, read-out: MIC
How it was run: (§10)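 Agar dilution in Isosensitest/CCEY agar with egg yolk and lysed horse blood; compounds as aqueous emulsions (myristyl and lauryl alcohol with 1-methyl-2-pyrrolidone and Tween 20). 1 µL spots of 1/15-diluted 0.5 McFarland suspensions, 37 °C aerobic, read at 22 and 48 h; MIC (mmol/L) is lowest concentration giving <10 colonies.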

[2] = system: Staphylococcus aureus (MRSA); experiment: MIC agar dilution, micro-organism 12 (11939); conditions: Staphylococcus aureus, MRSA, Staphylococcus aureus (MRSA) 11939, read-out: MIC
How it was run: as §10

MRSA EMRSA 16 21354/95 = experiment: MIC agar dilution, MRSA strain 44; conditions: Staphylococcus aureus
Description: as §1, §2, §3, §4, §5, §6, §7, §8, §9

MRSA EMRSA 16 07924/95 = experiment: MIC agar dilution, MRSA strain 49; conditions: Staphylococcus aureus
Description: as §1, §2, §3, §4, §5, §6, §7, §8, §9

MRSA EMRSA 15 1729/98 = experiment: MIC agar dilution, MRSA strain 42; conditions: Staphylococcus aureus
Description: as §1, §2, §3, §4, §5, §6, §7, §8, §9

[3] = system: Enterococcus faecalis (VRE) MB 726; experiment: MIC agar dilution, VRE strain 28
Description: as §1, §2, §3, §4, §5, §6, §7, §8, §9

Candida albicans = experiment: MIC agar dilution, micro-organism 19 (90028); conditions: Candida albicans 90028, read-out: MIC
How it was run: as §10

MRSA EMRSA 15 21698/98 = experiment: MIC agar dilution, MRSA strain 41; conditions: Staphylococcus aureus
Description: as §1, §2, §3, §4, §5, §6, §7, §8, §9

MRSA EMRSA 16 03732/95 = experiment: MIC agar dilution, MRSA strain 45; conditions: Staphylococcus aureus
Description: as §1, §2, §3, §4, §5, §6, §7, §8, §9

MIC (MRSA EMRSA 16 00998/95; 22 hrs): > 440 µM
MIC (MRSA EMRSA 16 00998/95; 48 hrs): > 440 µM
MIC ([1]; 22 hrs): > 880 µM
MIC ([1]; 48 hrs): > 880 µM
MIC (MRSA EMRSA 15 21268/98; 22 hrs): > 440 µM
MIC (MRSA EMRSA 15 21268/98; 48 hrs): > 440 µM
MIC (MRSA EMRSA 16 00036/95; 22 hrs): > 440 µM
MIC (MRSA EMRSA 16 00036/95; 48 hrs): > 440 µM
MIC (Candida glabrata; 22 h, 22 hrs): > 880 µM
MIC (Candida glabrata; 48 h, 48 hrs): > 880 µM
MIC ([2]; 22 h, 22 hrs): 220 µM (≈ 119 µg/mL)
MIC ([2]; 48 h, 48 hrs): 440 µM (≈ 237 µg/mL)
MIC (MRSA EMRSA 16 21354/95; 22 hrs): > 440 µM
MIC (MRSA EMRSA 16 21354/95; 48 hrs): > 440 µM
MIC (MRSA EMRSA 16 07924/95; 22 hrs): > 440 µM
MIC (MRSA EMRSA 16 07924/95; 48 hrs): > 440 µM
MIC (MRSA EMRSA 15 1729/98; 22 hrs): > 440 µM
MIC (MRSA EMRSA 15 1729/98; 48 hrs): > 440 µM
MIC ([3]; 22 hrs): 880 µM (≈ 474 µg/mL)
MIC ([3]; 48 hrs): > 880 µM
MIC (Candida albicans; 22 hrs): > 880 µM
MIC (Candida albicans; 48 hrs): > 880 µM
MIC (MRSA EMRSA 15 21698/98; 22 hrs): > 440 µM
MIC (MRSA EMRSA 15 21698/98; 48 hrs): > 440 µM
MIC (MRSA EMRSA 16 03732/95; 22 hrs): > 440 µM
MIC (MRSA EMRSA 16 03732/95; 48 hrs): > 440 µM
SMILES: CCCCCCCCCCCCOCCOCCOCCOCCOCCOCCOCCOCCO [L8, Octaethylene Glycol Monododecyl Ether]
